Laboratory results published in ChEMBL document CHEMBL1134148, “Combinatorial synthesis of CCR5 antagonists” (Bioorg Med Chem Lett, 2001).
Blank lines part the entries; values can stand above or below the molecule they belong to. Activity calls are given as the source filed them. The rule behind the calls is not given here.

How the values were obtained:
[1] = target: T1, C-C chemokine receptor type 5 (Homo sapiens, UniProt P51681); assay: Ability to inhibit binding of [125I]-MIP-1 alpha to C-C chemokine receptor type 5 in Chinese hamster ovary (CHO) cell membranes.
[2] = target: T1, C-C chemokine receptor type 5; assay: Ability to inhibit binding of [125I]-MIP-1 alpha to C-C chemokine receptor type 5 in Chinese hamster ovary (CHO) cell membranes
[3] = target: T1, C-C chemokine receptor type 5; assay: Ability to inhibit binding of [125I]-MIP-1 alpha to C-C chemokine receptor type 5 in Chinese hamster ovary (CHO) cell membranes;NA means no significant activity.
[4] = test system: Human immunodeficiency virus 1; assay: Inhibitory concentration for viral growth over 7 days vs YU-2 strain of HIV-1 at 10 uM; type: functional; details: Human immunodeficiency virus 1, 168 h
[5] = test system: Human immunodeficiency virus 1; assay: Inhibitory concentration for viral growth over 7 days vs YU-2 strain of HIV-1;NA means No significant activity at 10 uM.; type: functional, organism-based

T1 sequence (P51681 whole entry): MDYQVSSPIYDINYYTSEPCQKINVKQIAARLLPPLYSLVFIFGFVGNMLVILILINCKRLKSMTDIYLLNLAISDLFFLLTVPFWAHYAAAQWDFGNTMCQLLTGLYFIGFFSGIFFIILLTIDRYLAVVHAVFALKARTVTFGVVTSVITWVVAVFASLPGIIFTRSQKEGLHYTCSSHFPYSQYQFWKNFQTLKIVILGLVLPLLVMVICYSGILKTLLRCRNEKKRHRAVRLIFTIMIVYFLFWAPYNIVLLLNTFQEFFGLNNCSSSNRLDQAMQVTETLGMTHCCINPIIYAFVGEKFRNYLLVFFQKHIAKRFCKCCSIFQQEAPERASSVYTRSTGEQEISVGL

IC50 [1]: 6.5 nM
Structure (SMILES): CN(CC(CCN1CCC(O)(CCCc2ccccc2)CC1)c1ccccc1)S(=O)(=O)c1cccs1 (stereo unspecified)

IC50 [3]: Not Active
Structure (SMILES): CN(CC1CCCCC1)CC(CCN1CCC(O)(CCCc2ccccc2)CC1)c1ccccc1 (stereo unspecified)

IC50 [1]: 4 nM
Structure (SMILES): CN(CC(CCN1CCC(O)(CCCc2ccccc2)CC1)c1ccccc1)S(=O)(=O)c1ccc(-c2ccccn2)s1 (stereo unspecified)
IC95 [4]: 6200 nM

IC50 [1]: 3 nM
Structure (SMILES): CN(CC(CCN1CCC(CCCc2ccccc2)CC1)c1ccccc1)S(=O)(=O)c1cccs1 (stereo unspecified)
IC95 [5]: inactive

IC50 [2]: 41 nM
Structure (SMILES): O=S(=O)(c1ccc(-c2ccccn2)s1)N1C[C@H](CN2CCC(O)(CCCc3ccccc3)CC2)[C@@H](c2ccccc2)C1

IC50 [1]: 2 nM
Structure (SMILES): CN(CC(CCN1CCC(CCCc2ccccc2)CC1)c1ccccc1)S(=O)(=O)c1ccc(-c2ccccn2)s1 (stereo unspecified)
IC95 [4]: 3100 nM

The remaining lines, values behind:

Structure (SMILES): O=S(=O)(c1cccs1)N1CC(CN2CCC(O)(CCCc3ccccc3)CC2)[C@@H](c2ccccc2)C1 (stereo partly specified)
IC50 [2]: 20 nM

Structure (SMILES): OC1(CCCc2ccccc2)CCN(C[C@H]2CN(CC3CCCCC3)C[C@@H]2c2ccccc2)CC1
IC95 [4]: 580 nM
IC50 [2]: 1 nM

Structure (SMILES): O=S(=O)(c1ccc(-c2ccccn2)s1)N1C[C@H](CN2CCC(CCCc3ccccc3)CC2)[C@@H](c2ccccc2)C1
IC50 [2]: 60 nM

Structure (SMILES): c1ccc(CCCC2CCN(C[C@H]3CN(CC4CCCCC4)C[C@@H]3c3ccccc3)CC2)cc1
IC50 [2]: 6.5 nM

Structure (SMILES): O=S(=O)(c1cccs1)N1C[C@H](CN2CCC(CCCc3ccccc3)CC2)[C@@H](c2ccccc2)C1
IC50 [2]: 25 nM

Structure (SMILES): CN(CC1CCCCC1)CC(CCN1CCC(CCCc2ccccc2)CC1)c1ccccc1 (stereo unspecified)
IC50 [3]: Not Active
